From patent EP0213571A2, “3-Aminomethyl pyrrol-1-yl-alkyl amines and medicaments containing these compounds” (BASF Aktiengesellschaft, priority 1985, dated 1987)

Tested on: Histamin-H₂-Rezeptor
Assay: Antagonism of the dimaprit-induced fall in blood pressure in the anaesthetised rat, test substance given i.v.
Format: in vivo, Ratten (Stamm: Sprague-Dawley, männlich)
Procedure: Sie kann in 1 bis 4 Dosen/Tag aufgeteilt werden.
Zum Nachweis der Histamin-H₂-Rezeptor-blockierenden Wirkung wird folgende Methode angewendet.
Die Applikation der geprüften Substanzen erfolgt intravenös 5 min vor der Dimaprit-Injektion. Als ED 50 % werden die Dosen ermittelt, welche die Dimaprit-Blutdrucksenkung um 50 % hemmen.

`CN(C)CCCSC(=N)N` [Dimaprit, S-[3-(N,N-dimethylamino)propyl]isothio urea] was tested, and the Blutdrucksenkungen (Dimaprit 3,16 mg/kg i.v. alone, anaesthetised rats, mean, baseline pressure 100 ± 1, 1 mmHg, N = 70) was 27 ± 0,7 mmHg.
For `CNC(=NC#N)NCCSCc1nc[nH]c1C` [Cimetidin], the “Hemmung der Dimaprit-Blutdrucksenkung” value (anaesthetised rats (urethane 1,78 g/kg i.p.), substance i.v. 5 min before Dimaprit 3,16 mg/kg i.v.) was “hemmen diese Dimaprit-Blutdrucksenkung dosisabhängig”.
`CNC(=NC#N)NCCCCn1c(C)ccc1C` [Verbindung des Beispiels 12] was tested, and the “Histamin-H₂-Rezeptoren-blockierende Wirkung” value (result in words, potency compared with Cimetidin, b35 names no test, assigned to the only test described) was “wesentlich schwächer wirksam als Cimetidin”.
